Data taken from US4416884A, “Piperazinylbenzoheterocyclic compounds” (Otsuka Pharmaceutical Co., Ltd., priority 1978, dated 1983).
≈ marks a conversion by molar mass, not a printed value. Like-named read-outs stand apart in the source and are kept apart here.

Experiments:
Assay type in all cases: cell-based
[1] = system: Test Organism 27 (Streptococcus pneumoniae Type III); assay: influence of the addition of horse serum on the MIC
[2] = system: Test Organism 1 (Escherichia Coli NIHJ); assay: as above
[3] = system: Test Organism 21 (Bacillus subtilis PCI 219); assay: as above
[4] = system: Test Organism 17 (Pseudomonas putida IFO 13696); assay: as above
[5] = system: Klebsiella pneumoniae ST-101; assay: antimicrobial activity, serial dilution method on agar plate; settings: read-out: Minimum Inhibitory Concentration
Method in brief: (§1)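 MIC (mcg/ml) read on Heart Infusion agar plates carrying serial compound dilutions. Organisms inoculated at two densities: 1×10^8 cells/ml, set by O.D. 660 mμ=0.07 to 0.16, and a 1×10^6 cells/ml dilution of that suspension.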

[6] = system: Pseudomonas aeruginosa ATCC 10145; assay: as above; settings: read-out: Minimum Inhibitory Concentration
Method in brief: as §1

[7] = system: Escherichia Coli NIHJ JC-2 (IFO 12734); assay: as above; settings: Escherichia coli, read-out: Minimum Inhibitory Concentration
Method in brief: as §1

[8] = system: Bacillus subtilis PCI 219; assay: as above; settings: read-out: Minimum Inhibitory Concentration
Method in brief: as §1

[9] = system: Streptococcus pneumoniae Type II; assay: as above; settings: inoculum 1 × 10^8 cells/ml, read-out: Minimum Inhibitory Concentration
Method in brief: as §1

[10] = system: Streptococcus pyogenes IID Cook; assay: as above; settings: inoculum 1 × 10^8 cells/ml, read-out: Minimum Inhibitory Concentration
Method in brief: as §1

[11] = system: Proteus morganii IID Kono; assay: as above; settings: Morganella morganii, read-out: Minimum Inhibitory Concentration
Method in brief: as §1

[12] = system: Streptococcus pneumoniae Type III; assay: as above; settings: inoculum 1 × 10^8 cells/ml, read-out: Minimum Inhibitory Concentration
Method in brief: as §1

[13] = system: Test Organism 16 (Pseudomonas maltophilia IFO 12692); assay: influence of the addition of horse serum on the MIC; settings: Stenotrophomonas maltophilia, read-out: Minimum Inhibitory Concentration
[14] = system: Yersinia enterocolitica 0-5; assay: antimicrobial activity, serial dilution method on agar plate; settings: Yersinia enterocolitica, 05; inoculum 1 × 10^8 cells/ml; read-out: Minimum Inhibitory Concentration
[15] = horse serum 0%, inoculum 10^6, read-out: Minimum Inhibitory Concentration
[16] = horse serum 0%, inoculum 10^8, read-out: Minimum Inhibitory Concentration
[17] = horse serum 10%, inoculum 10^6, read-out: Minimum Inhibitory Concentration
[18] = horse serum 10%, inoculum 10^8, read-out: Minimum Inhibitory Concentration
[19] = horse serum 20%, inoculum 10^6, read-out: Minimum Inhibitory Concentration
[20] = horse serum 20%, inoculum 10^8, read-out: Minimum Inhibitory Concentration
[21] = horse serum 40%, inoculum 10^6, read-out: Minimum Inhibitory Concentration
[22] = horse serum 40%, inoculum 10^8, read-out: Minimum Inhibitory Concentration

Structure (SMILES): CC1CCc2cc(F)cc3c(=O)c(C(=O)O)cn1c23 (stereo not drawn) [F]
- MIC [1, 15]: 50 µg/mL (≈ 191 µM)
- MIC [1, 16]: 50 µg/mL (≈ 191 µM)
- MIC [1, 17]: 50 µg/mL (≈ 191 µM)
- MIC [1, 18]: > 50 µg/mL
- MIC [1, 19]: 50 µg/mL (≈ 191 µM)
- MIC [1, 20]: > 50 µg/mL
- MIC [1, 21]: 50 µg/mL (≈ 191 µM)
- MIC [1, 22]: > 50 µg/mL
- MIC [2, 15]: 1.6 µg/mL (≈ 6.12 µM)
- MIC [2, 16]: 1.6 µg/mL (≈ 6.12 µM)
- MIC [2, 17]: 3.1 µg/mL (≈ 11.9 µM)
- MIC [2, 18]: 3.1 µg/mL (≈ 11.9 µM)
- MIC [2, 19]: 3.1 µg/mL (≈ 11.9 µM)
- MIC [2, 20]: 6.3 µg/mL (≈ 24.1 µM)
- MIC [2, 21]: 12.5 µg/mL (≈ 47.8 µM)
- MIC [2, 22]: 12.5 µg/mL (≈ 47.8 µM)
- MIC [3, 15]: 0.8 µg/mL (≈ 3.06 µM)
- MIC [3, 16]: 0.8 µg/mL (≈ 3.06 µM)
- MIC [3, 17]: 0.8 µg/mL (≈ 3.06 µM)
- MIC [3, 18]: 0.8 µg/mL (≈ 3.06 µM)
- MIC [3, 19]: 0.8 µg/mL (≈ 3.06 µM)
- MIC [3, 20]: 0.8 µg/mL (≈ 3.06 µM)
- MIC [3, 21]: 1.6 µg/mL (≈ 6.12 µM)
- MIC [3, 22]: 1.6 µg/mL (≈ 6.12 µM)
- MIC ([4]; IFO13696, horse serum 0%, inoculum 10^6, read-out: Minimum Inhibitory Concentration): 0.1 µg/mL (≈ 0.383 µM)
- MIC ([4]; IFO13696, horse serum 0%, inoculum 10^8, read-out: Minimum Inhibitory Concentration): 0.2 µg/mL (≈ 0.766 µM)
- MIC ([4]; IFO13696, horse serum 10%, inoculum 10^6, read-out: Minimum Inhibitory Concentration): 0.2 µg/mL (≈ 0.766 µM)
- MIC ([4]; IFO13696, horse serum 10%, inoculum 10^8, read-out: Minimum Inhibitory Concentration): 0.4 µg/mL (≈ 1.53 µM)
- MIC ([4]; IFO13696, horse serum 20%, inoculum 10^6, read-out: Minimum Inhibitory Concentration): 0.2 µg/mL (≈ 0.766 µM)
- MIC ([4]; IFO13696, horse serum 20%, inoculum 10^8, read-out: Minimum Inhibitory Concentration): 0.2 µg/mL (≈ 0.766 µM)
- MIC ([4]; IFO13696, horse serum 40%, inoculum 10^6, read-out: Minimum Inhibitory Concentration): 0.2 µg/mL (≈ 0.766 µM)
- MIC ([4]; IFO13696, horse serum 40%, inoculum 10^8, read-out: Minimum Inhibitory Concentration): 0.2 µg/mL (≈ 0.766 µM)
- MIC ([5]; ST101, inoculum 1 × 10^6 cells/ml): 0.1 µg/mL (≈ 0.383 µM)
- MIC ([5]; ST101, inoculum 1 × 10^8 cells/ml): 0.2 µg/mL (≈ 0.766 µM)
- MIC ([6]; ATCC10145, inoculum 1 × 10^6 cells/ml): 12.5 µg/mL (≈ 47.8 µM)
- MIC ([6]; ATCC10145, inoculum 1 × 10^8 cells/ml): 25 µg/mL (≈ 95.7 µM)
- MIC ([7]; inoculum 1 × 10^6 cells/ml): 0.4 µg/mL (≈ 1.53 µM)
- MIC ([7]; inoculum 1 × 10^8 cells/ml): 0.8 µg/mL (≈ 3.06 µM)
- MIC ([8]; PCI219, inoculum 1 × 10^6 cells/ml): 0.2 µg/mL (≈ 0.766 µM)
- MIC ([8]; PCI219, inoculum 1 × 10^8 cells/ml): 0.4 µg/mL (≈ 1.53 µM)
- MIC [9]: > 100 µg/mL
- MIC [10]: > 100 µg/mL
- MIC ([11]; inoculum 1 × 10^6 cells/ml): 0.4 µg/mL (≈ 1.53 µM)
- MIC ([11]; inoculum 1 × 10^8 cells/ml): 0.8 µg/mL (≈ 3.06 µM)
- MIC [12]: > 100 µg/mL
- MIC ([13]; IFO12692, horse serum 0%, inoculum 10^6): 0.8 µg/mL (≈ 3.06 µM)
- MIC ([13]; IFO12692, horse serum 0%, inoculum 10^8): 0.8 µg/mL (≈ 3.06 µM)
- MIC ([13]; IFO12692, horse serum 10%, inoculum 10^6): 0.4 µg/mL (≈ 1.53 µM)
- MIC ([13]; IFO12692, horse serum 10%, inoculum 10^8): 0.8 µg/mL (≈ 3.06 µM)
- MIC ([13]; IFO12692, horse serum 20%, inoculum 10^6): 1.6 µg/mL (≈ 6.12 µM)
- MIC ([13]; IFO12692, horse serum 20%, inoculum 10^8): 0.8 µg/mL (≈ 3.06 µM)
- MIC ([13]; IFO12692, horse serum 40%, inoculum 10^6): 1.6 µg/mL (≈ 6.12 µM)
- MIC ([13]; IFO12692, horse serum 40%, inoculum 10^8): 1.6 µg/mL (≈ 6.12 µM)
- MIC [14]: 0.4 µg/mL (≈ 1.53 µM)
